Publication PMC7402526, “An in vitro quantitative systems pharmacology approach for deconvolving mechanisms of drug-induced, multilineage cytopenias” (PLoS Computational Biology, 2020)
pEC50: −log10 of the molar value.

What was measured:
Type in all cases: cell-based, human
[1] = test system: B cells (B-lin); test: MLTA, B-lin: concentration-response and QSP model fit
Description: (§1) A custom optimized cytokine cocktail was developed using commercially available cytokines (Peprotech, New Jersey) to facilitate simultaneous multi-lineage differentiation and self-renewal of freeze-thawed primary human bone marrow-derived CD34+ cells in SFEM II media (cells and media from StemCell Technologies, Vancouver). Cultures were carried out in ultra-low attachment 96-well plates (Corning, New York) with test article added on day 0 and cultured at 37°C, 85% relative humidity, and 5% CO2 for six days before interrogating drug impact via 17-parameter flow cytometry.
(§2) The flow cytometry panel used to define hematopoietic subsets was composed of CD34-PECy7, CD90-PECY5, CD38-AF488, CD371-PE, CD45Ra-BV421, CD14-BV605, CD42b-AF647, CD10-PEDazzle594, CD235a-PerCPCy5.5 (BioLegend, California), CD15-BUV395, CD41a-APCH7, CD71-BV786 (BD Biosciences, California), and DAPI for dead cell exclusion (ThermoFisher, California). In short, Day 6 cells were harvested, FcR-blocked (FcR binding inhibitor, ThermoFisher), surface-stained, then analyzed in a buffer containing TruCount Control Beads using a BD LSR Fortessa SORP fitted with a high-throughput sampler (BD Biosciences, California). Data was analyzed in Diva 6.0.2 and exported to CSV where after all cell data was transformed to cell per mL then normalized on a per-donor basis to untreated control wells to determine drug impact.
(§3) Donor material was collected and cultured as described above. The number of replicate donor samples per drug ranged from 2–7 and varied per drug (S1 Table). Drug treatment was added at time 0 and cells were maintained in culture for 6 days. Concentrations tested for each drug compound are contained in S1 Table. Concentrations were selected to span a range that is clinically useful. Following treatment, cell populations were measured using flow cytometry. We extracted cell counts from flow cytometry data, normalized to bead counts, and corrected for well volume.
(§4) Each well was normalized to the average of six vehicle control wells. For drugs that were tested across multiple runs of the assay, vehicle-normalized donor data were pooled, and we used the average of these pooled data for further modeling. Normalized data used as model inputs are included in S1 Table.
(§5) We implemented drug effects using an Emax model for the drug’s effect on each cell type. The 13 maximum effect parameters (EmaxT,C) are unitless and can vary between 0 and 2 and where a subscript, C, represents one of the previously described 13 cell types. We adapted a traditional Emax model using the equations below. We interpreted EmaxT values less than or equal to one as anti-proliferative, and EmaxT values greater than one as indicating a cell-killing mechanism in addition to anti-proliferation. The relationships for these effects are included in the model using the following equations. Eq 2 describes the drug anti-proliferative effect in the net proliferation rate for a given cell type. Eq 3 describes the cell-killing EmaxCK effect.
(§6) Towards the estimation of mechanistic parameters, we considered different formulations: (a) weighting the objective value to prioritize fitting dead cells and (b) using regularization methodology to encourage a parsimonious solution. We assessed the contributions of these formulations using mean-squared error and goodness of fit plots for drugs with known mechanisms. […] Further, we used L1 regularization to penalize parameters […] to help identify a parsimonious set of parameters to explain drug effects.

[2] = test system: granulocyte-macrophage progenitor (GMPs); test: MLTA, GMPs: concentration-response and QSP model fit
Description: as §1, §2, §3, §4, §5, §6

[3] = test system: lymphocyte progenitors (LymP); test: MLTA, LymP: concentration-response and QSP model fit
Description: as §1, §2, §3, §4, §5, §6

[4] = test system: granulocyte progenitor (Gran-lin prog); test: MLTA, GranP: concentration-response and QSP model fit
Description: as §1, §2, §3, §4, §5, §6

[5] = test system: multi-potent progenitors (MPPs); test: MLTA, MPPs: concentration-response and QSP model fit
Description: as §1, §2, §3, §4, §5, §6

[6] = test system: early erythroid cells (Eryth I); test: MLTA, ErythI: concentration-response and QSP model fit
Description: as §1, §2, §3, §4, §5, §6

[7] = test system: MK cells (MK-lin); test: MLTA, MK: concentration-response and QSP model fit
Description: as §1, §2, §3, §4, §5, §6

[8] = test system: neutrophils (neutrophil-lin); test: MLTA, Neut: concentration-response and QSP model fit
Description: as §1, §2, §3, §4, §5, §6

[9] = test system: granulocytes (Gran-lin); test: MLTA, Gran: concentration-response and QSP model fit
Description: as §1, §2, §3, §4, §5, §6

[10] = test system: monocyte progenitors (monocyte prog); test: MLTA, MonoP: concentration-response and QSP model fit
Description: as §1, §2, §3, §4, §5, §6

[11] = test system: monocytes (monocyte-lin); test: MLTA, Mono: concentration-response and QSP model fit
Description: as §1, §2, §3, §4, §5, §6

[12] = test system: hematopoietic stem cells (HSCs); test: Multi-lineage toxicity assay (MLTA), HSCs: concentration-response and QSP model fit; parameters: EmaxAP,HSC / EmaxT,HSC / Emax_drug_HSC: unitless, 0–2; ≤1 anti-proliferative, >1 adds cell killing
Description: as §1, §2, §3, §4, §5, §6

[13] = test system: late erythroid cells (Eryth II); test: MLTA, ErythII: concentration-response and QSP model fit
Description: as §1, §2, §3, §4, §5, §6

[14] = QSP model parameter, sheet EC50_parameters, B
[15] = parameter from QSP model fitting
[16] = QSP model parameter, sheet EC50_parameters, GMPs
[17] = QSP model parameter, sheet EC50_parameters, LymP
[18] = QSP model parameter, sheet EC50_parameters, MPPs
[19] = QSP model parameter, sheet EC50_parameters, MK
[20] = QSP model parameter, sheet EC50_parameters, Neut
[21] = QSP model parameter, sheet EC50_parameters, Gran
[22] = QSP model parameter, sheet EC50_parameters, Mono
[23] = QSP model parameter, sheet EC50_parameters, HSCs

O=c1[nH]cc(F)c(=O)[nH]1 [5-FU]
pEC50 [1, 14]: 5.96 | EmaxT,B [1, 14]: 0.8249 | Emax_drug_B [1, 15]: 0.8249 | pEC50 [2, 16]: 6.12 | EmaxT,GMP [2, 16]: 1.5687 | Emax_drug_GMP [2, 15]: 1.5687 | pEC50 [3, 17]: 7.43 | EmaxT,LymP [3, 17]: 0.0016 | Emax_drug_LymP [3, 15]: 0.0016 | EmaxT,GranP ([4]; QSP model parameter, sheet EC50_parameters, GranP): 0.0162 | pEC50 ([4]; QSP model parameter, sheet EC50_parameters, GranP, read-out: EC50GranP): 6.52 | Emax_drug_GranP [4, 15]: 0.0162 | pEC50 [5, 18]: 6.03 | EmaxT,MPP [5, 18]: 0.000528 | Emax_drug_MPP [5, 15]: 0.000528 | EmaxT,ErythroidI ([6]; QSP model parameter, sheet EC50_parameters, Erythroid I): 2.3324 | pEC50 ([6]; QSP model parameter, sheet EC50_parameters, Erythroid I, read-out: EC50ErythroidI): 6.04 | Emax_drug_ErythroidI [6, 15]: 2.3324 | pEC50 [7, 19]: 5.95 | EmaxT,MK [7, 19]: 0.3220 | Emax_drug_MK [7, 15]: 0.3220 | pEC50 [8, 20]: 5.99 | EmaxT,Neut [8, 20]: 0.2668 | Emax_drug_Neut [8, 15]: 0.2668 | pEC50 [9, 21]: 9.93 | EmaxT,Gran [9, 21]: 0.1807 | Emax_drug_Gran [9, 15]: 0.1807 | EmaxT,MonoP ([10]; QSP model parameter, sheet EC50_parameters, MonoP): 0.0016 | pEC50 ([10]; QSP model parameter, sheet EC50_parameters, MonoP, read-out: EC50MonoP): 6.75 | Emax_drug_MonoP [10, 15]: 0.0016 | pEC50 [11, 22]: 6.52 | EmaxT,Mono [11, 22]: 0.3048 | Emax_drug_Mono [11, 15]: 0.3048 | pEC50 [12, 23]: 5.72 | EmaxT,HSC [12, 23]: 0.7982 | Emax_drug_HSC [12, 15]: 0.7982 | EmaxT,ErythroidII ([13]; QSP model parameter, sheet EC50_parameters, Erythroid II): 0.0352 | pEC50 ([13]; QSP model parameter, sheet EC50_parameters, Erythroid II, read-out: EC50ErythroidII): 5.75 | Emax_drug_ErythroidII [13, 15]: 0.0352
